Data taken from PubChem BioAssay (NCI).
“And” between values parts separate entries of the source, which are not always exact repeats. Equal entries are not always repeated.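 1) Cells in 96-well plates. 2) Compound, 48 h, 5 concentrations. 3) Linear interpolation between surrounding doses. 4) Unreached endpoint = highest concentration. GI50 marks 50% less growth. Definition used: TGI = concentration required for complete inhibition of growth.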

Assays:
Test in all cases: inhibition of tumour cell growth, NCI panel, 48 h
MDA-MB-231 breast = tested on: MDA-MB-231 breast
HOP-62 NSCLC = tested on: HOP-62 NSCLC
SK-MEL-5 melanoma = tested on: SK-MEL-5 melanoma
MOLT-4 leukemia = tested on: MOLT-4 leukemia
T-47D breast = tested on: T-47D breast
SF-539 CNS = tested on: SF-539 CNS
ACHN renal = tested on: ACHN renal
PC-3 prostate = tested on: PC-3 prostate
KM12 colon = tested on: KM12 colon
A549 NSCLC = tested on: A549 NSCLC

SMILES: Cc1ccc(C(=O)Nc2ccc(CN3CCN(C)CC3)c(C(F)(F)F)c2)cc1C#Cc1cnc2cccnn12
- GI50 (MDA-MB-231 breast): 0.215 µM and 0.317 µM
- TGI (MDA-MB-231 breast): 1.05 µM and 1.24 µM
- GI50 (HOP-62 NSCLC): 0.413 µM and 0.849 µM
- TGI (HOP-62 NSCLC): 1.53 µM and 3.73 µM
- GI50 (SK-MEL-5 melanoma): 0.79 µM and 2.74 µM
- TGI (SK-MEL-5 melanoma): 2.04 µM and 4.66 µM
- GI50 (MOLT-4 leukemia): 0.35 µM and 0.703 µM
- TGI (MOLT-4 leukemia): 2.02 µM and 4.45 µM
- GI50 (T-47D breast): 0.54 µM and 1.68 µM
- TGI (T-47D breast): 2.07 µM and 4.37 µM
- GI50 (SF-539 CNS): 0.255 µM and 0.669 µM
- TGI (SF-539 CNS): 0.722 µM and 2.18 µM
- GI50 (ACHN renal): 0.191 µM and 0.322 µM
- TGI (ACHN renal): 1.09 µM and 3.24 µM
- GI50 (PC-3 prostate): 1.14 µM and 2.19 µM
- TGI (PC-3 prostate): 3.2 µM and 5.59 µM
- GI50 (KM12 colon): 0.0455 µM and 0.131 µM
- TGI (KM12 colon): 1.22 µM and 3.72 µM
- GI50 (A549 NSCLC): 0.377 µM and 1.31 µM
- TGI (A549 NSCLC): 1.55 µM and 3.79 µM

SMILES: Cc1cc(N/N=C/c2nc(-c3ccc(Br)cc3)oc2C)c2cc(Cl)ccc2n1
- GI50 (MDA-MB-231 breast): > 100 µM
- TGI (MDA-MB-231 breast): > 100 µM
- GI50 (HOP-62 NSCLC): > 100 µM
- TGI (HOP-62 NSCLC): > 100 µM
- GI50 (SK-MEL-5 melanoma): > 100 µM
- TGI (SK-MEL-5 melanoma): > 100 µM
- GI50 (MOLT-4 leukemia): > 100 µM
- TGI (MOLT-4 leukemia): > 100 µM
- GI50 (T-47D breast): > 100 µM
- TGI (T-47D breast): > 100 µM
- GI50 (SF-539 CNS): > 100 µM
- TGI (SF-539 CNS): > 100 µM
- GI50 (ACHN renal): > 100 µM
- TGI (ACHN renal): > 100 µM
- GI50 (PC-3 prostate): > 100 µM
- TGI (PC-3 prostate): > 100 µM
- GI50 (KM12 colon): > 100 µM
- TGI (KM12 colon): > 100 µM
- GI50 (A549 NSCLC): > 100 µM
- TGI (A549 NSCLC): > 100 µM

SMILES: C=C1CC[C@@H]2[C@](C)(COC(C)=O)[C@@H](O)CC[C@@]2(C)[C@@H]1COc1ccc2ccc(=O)oc2c1
- GI50 (MDA-MB-231 breast): > 100 µM
- TGI (MDA-MB-231 breast): > 100 µM
- GI50 (HOP-62 NSCLC): > 100 µM
- TGI (HOP-62 NSCLC): > 100 µM
- GI50 (SK-MEL-5 melanoma): > 100 µM
- TGI (SK-MEL-5 melanoma): > 100 µM
- GI50 (MOLT-4 leukemia): > 100 µM
- TGI (MOLT-4 leukemia): > 100 µM
- GI50 (T-47D breast): > 100 µM
- TGI (T-47D breast): > 100 µM
- GI50 (SF-539 CNS): 53.3 µM
- TGI (SF-539 CNS): > 100 µM
- GI50 (ACHN renal): > 100 µM
- TGI (ACHN renal): > 100 µM
- GI50 (PC-3 prostate): > 100 µM
- TGI (PC-3 prostate): > 100 µM
- GI50 (KM12 colon): > 100 µM
- TGI (KM12 colon): > 100 µM
- GI50 (A549 NSCLC): > 100 µM
- TGI (A549 NSCLC): > 100 µM

SMILES: C/C(=N\Nc1ccc2ccccc2n1)c1ccccn1
- GI50 (MDA-MB-231 breast): < 0.042 µM
- TGI (MDA-MB-231 breast): 4.06 µM
- GI50 (HOP-62 NSCLC): 0.09 µM
- TGI (HOP-62 NSCLC): 11 µM
- GI50 (SK-MEL-5 melanoma): 0.103 µM
- TGI (SK-MEL-5 melanoma): 2.24 µM
- GI50 (MOLT-4 leukemia): < 0.0394 µM
- TGI (MOLT-4 leukemia): 0.404 µM
- GI50 (T-47D breast): < 0.0332 µM
- TGI (T-47D breast): 3.2 µM
- GI50 (SF-539 CNS): 0.0768 µM
- TGI (SF-539 CNS): 0.487 µM
- GI50 (ACHN renal): < 0.0389 µM
- TGI (ACHN renal): 1.32 µM
- TGI (PC-3 prostate): 7.23 µM
- GI50 (KM12 colon): 0.115 µM
- TGI (KM12 colon): 9.12 µM
- GI50 (A549 NSCLC): 0.0841 µM
- TGI (A549 NSCLC): 11.1 µM

SMILES: COc1ccc2cc(-c3ccoc(=O)c3-c3cc(OC)c(OC)c(OC)c3)ccc2c1
- GI50 (MDA-MB-231 breast): 0.148 µM
- TGI (MDA-MB-231 breast): > 100 µM
- GI50 (HOP-62 NSCLC): 0.27 µM
- TGI (HOP-62 NSCLC): > 100 µM
- GI50 (SK-MEL-5 melanoma): 0.0379 µM
- TGI (SK-MEL-5 melanoma): 4.1 µM
- GI50 (MOLT-4 leukemia): 0.161 µM
- TGI (MOLT-4 leukemia): > 51.1 µM
- GI50 (T-47D breast): 0.0772 µM
- TGI (T-47D breast): > 100 µM
- GI50 (SF-539 CNS): 0.266 µM
- TGI (SF-539 CNS): > 100 µM
- GI50 (ACHN renal): 1.48 µM
- TGI (ACHN renal): > 100 µM
- GI50 (PC-3 prostate): 0.0521 µM
- TGI (PC-3 prostate): > 100 µM
- GI50 (KM12 colon): 0.0238 µM
- GI50 (A549 NSCLC): 0.0775 µM
- TGI (A549 NSCLC): > 100 µM

SMILES: CNC(=O)OCc1c(COC(=O)NC)c(C)n(-c2ccc(Br)cc2)c1C
- TGI (MDA-MB-231 breast): 30.5 µM
- TGI (HOP-62 NSCLC): 29.1 µM
- TGI (SK-MEL-5 melanoma): 28.1 µM
- TGI (MOLT-4 leukemia): > 100 µM
- TGI (T-47D breast): 54.9 µM
- TGI (SF-539 CNS): 30.3 µM
- TGI (ACHN renal): 12.7 µM
- TGI (PC-3 prostate): 65.8 µM
- TGI (KM12 colon): 30.8 µM
- TGI (A549 NSCLC): 38.1 µM

SMILES: O=C1C(=O)c2c(nc3ccc(Cl)cn23)-c2ccccc21
- GI50 (MDA-MB-231 breast): 0.296 µM
- TGI (MDA-MB-231 breast): 3.95 µM
- GI50 (HOP-62 NSCLC): 0.666 µM
- TGI (HOP-62 NSCLC): 1.66 µM
- GI50 (SK-MEL-5 melanoma): 0.161 µM
- TGI (SK-MEL-5 melanoma): 0.309 µM
- GI50 (MOLT-4 leukemia): 0.308 µM
- GI50 (T-47D breast): 0.394 µM
- TGI (T-47D breast): 1.6 µM
- GI50 (SF-539 CNS): 0.189 µM
- TGI (SF-539 CNS): 0.358 µM
- GI50 (ACHN renal): 0.591 µM
- TGI (ACHN renal): 1.88 µM
- GI50 (PC-3 prostate): 1.2 µM
- TGI (PC-3 prostate): 10.6 µM
- GI50 (KM12 colon): 1.78 µM
- TGI (KM12 colon): 3.89 µM
- GI50 (A549 NSCLC): 0.84 µM

SMILES: C=CC(=O)N1CCN(c2ccc3cccc(NC(=O)c4cnc(C)cn4)c3n2)CC1
- GI50 (MDA-MB-231 breast): 3.5 µM
- TGI (MDA-MB-231 breast): > 100 µM
- GI50 (HOP-62 NSCLC): 4.24 µM
- TGI (HOP-62 NSCLC): > 100 µM
- GI50 (SK-MEL-5 melanoma): 4.42 µM
- TGI (SK-MEL-5 melanoma): 16.9 µM
- GI50 (MOLT-4 leukemia): 2.18 µM
- TGI (MOLT-4 leukemia): 6.66 µM
- GI50 (T-47D breast): 3.48 µM
- TGI (T-47D breast): > 100 µM
- GI50 (SF-539 CNS): 3.16 µM
- TGI (SF-539 CNS): 15.3 µM
- GI50 (ACHN renal): 0.656 µM
- TGI (ACHN renal): > 100 µM
- GI50 (PC-3 prostate): 2.86 µM
- TGI (PC-3 prostate): 26.5 µM
- GI50 (KM12 colon): 2.84 µM
- TGI (KM12 colon): 19 µM
- GI50 (A549 NSCLC): 3.77 µM
- TGI (A549 NSCLC): > 100 µM

SMILES: C=CC(=O)Nc1cccc(C)c1Nc1cc(-c2cccnc2Cc2c(C)c(OC)cc(OC)c2C)ncn1
- GI50 (MDA-MB-231 breast): 5.65 µM
- TGI (MDA-MB-231 breast): 70.9 µM
- GI50 (HOP-62 NSCLC): 19 µM
- TGI (HOP-62 NSCLC): 75.7 µM
- GI50 (SK-MEL-5 melanoma): 10.7 µM
- TGI (SK-MEL-5 melanoma): 23.5 µM
- GI50 (MOLT-4 leukemia): 3.6 µM
- TGI (MOLT-4 leukemia): > 100 µM
- GI50 (T-47D breast): 7.92 µM
- TGI (T-47D breast): > 100 µM
- GI50 (SF-539 CNS): 3.47 µM
- TGI (SF-539 CNS): 38.2 µM
- GI50 (ACHN renal): 17.3 µM
- TGI (ACHN renal): > 100 µM
- GI50 (PC-3 prostate): 5.65 µM
- TGI (PC-3 prostate): > 100 µM
- GI50 (KM12 colon): 13.4 µM
- TGI (KM12 colon): 34.2 µM
- GI50 (A549 NSCLC): 16.2 µM
- TGI (A549 NSCLC): > 100 µM

SMILES: N=C(N)c1ccc(N2CCCN(c3ccc(C(=N)N)cc3)CC2)cc1
- GI50 (MDA-MB-231 breast): > 100 µM
- TGI (MDA-MB-231 breast): > 100 µM
- GI50 (HOP-62 NSCLC): 61.6 µM
- TGI (HOP-62 NSCLC): > 100 µM
- GI50 (SK-MEL-5 melanoma): 27.9 µM
- TGI (SK-MEL-5 melanoma): > 100 µM
- GI50 (MOLT-4 leukemia): > 100 µM
- TGI (MOLT-4 leukemia): > 100 µM
- GI50 (T-47D breast): 22.6 µM
- TGI (T-47D breast): 81 µM
- GI50 (SF-539 CNS): 41.5 µM
- TGI (SF-539 CNS): > 100 µM
- GI50 (ACHN renal): > 100 µM
- TGI (ACHN renal): > 100 µM
- GI50 (PC-3 prostate): > 100 µM
- TGI (PC-3 prostate): > 100 µM
- GI50 (KM12 colon): 62.1 µM
- TGI (KM12 colon): > 100 µM
- GI50 (A549 NSCLC): 40.5 µM
- TGI (A549 NSCLC): > 100 µM
